Test results: patent publication US20130131088A1 (UNIVERSITY HEALTH NETWORK, priority 2010, published 2013)

What was measured:
[1] = test system: AML-3 cell line; experiment: potentiation of statin cytotoxic/apoptotic effects by agents that mimic DP activities; assay type: cell-based; settings: for potentiation of the cytotoxic effects of statins / statin cancer cell death: in combination with statin (forskolin with fluvastatin)
Description: The mechanism of action was investigated. First, to tease apart which of DP's many activities may be functionally critical, the synergistic potential of a panel of agents that mimics DP in one or more of its activities was tested (see Table 1).
As cilostazol inhibits PDE3 which activates. PKA, studies were carried out using various PKA activators, including forskolin, a cell permeable analog of cAMP, db-cAMP, and a PDE3 inhibitor. […] Inhibition of PDEs 6, 9 and 11 by zaprinast is expected to raise cGMP but not cAMP levels.

[2] = test system: CREB phosphorylation; experiment: CREB phosphorylation immunoblot (LI-COR quantification); assay type: cell-based; settings: AML-3 cell line, 2 hours post-treatment
Description: (§1) As cilostazol inhibits PDE3 which activates. PKA, studies were carried out using various PKA activators, including forskolin, a cell permeable analog of cAMP, db-cAMP, and a PDE3 inhibitor.

[3] = test system: KMS11-luc (KMS11 cells stably expressing luciferase)
From the text: Tumours were imaged in mice on designated days by whole-body imaging using the IVIS imaging system illustrated by a representative image (C). Briefly, mice were i.p. injected with luciferein followed by anesthetization with isoflurane. Signal intensity was quantified using Living Image versio 2.50.2 (Xenogen) by summing detected photon counts from dorsal and ventral images.

[4] = test system: AML cell lines and the KMS11 mM cell line; experiment: combination tests (FIG. 12); assay type: cell-based; settings: in combination with fluvastatin
From the text: FIG. 12. Combination tests.

[5] = test system: AML-2; experiment: potentiation of statin cytotoxic effects by agents that mimic DP activities; assay type: cell-based; settings: in combination with statin
Description: as §1

[6] = test system: KMS11; experiment: as above; assay type: cell-based; settings: in combination with statin
Description: as §1

[7] = test system: primary AML patient samples; experiment: apoptosis by Annexin V and propidium iodide dual staining; assay type: cell-based; settings: 48 hrs
From the text: AV−/PI−=live cells, AV+/PI−=early apoptosis, AV+/PI+=late apoptosis, AV−/PI+=necrosis.

[8] = test system: HMGCR mRNA in LP1 mM cells; experiment: HMGCR mRNA levels by real-time PCR (SYBR Green); assay type: cell-based; settings: combination of statins and dipyridamole, 16 hours post compound treatment
Description: (§2) RNA from primary AML and LP1 cells was harvested 24 and 16 hours post compound treatment respectively using TRIZOL reagent. HMGCR mRNA levels were assessed using real-time PCR (SYBR Green). […] For example, Fluva 2 indicates a fluvastatin concentration of 2 μM.

[9] = test system: A549; experiment: potentiation and synergy with statin in lung cancer cell line; assay type: cell-based; settings: with atorvastatin, 72 hours
Description: (§3) Atorvastatin was used in A549's and fluvastatin the breast cancer cell lines to asses potentiation and synergy.
(§4) Experiments in breast cancer cell lines (e.g. MCF-7) as well as the lung cancer cell lines (e.g. A549) were carried out similarly as described above.
(§5) Atorvastatin was used in A549's and fluvastatin the breast cancer cell lines to assess potentiation and synergy.

[10] = test system: KMS11 cell line; experiment: apoptosis by fixed PI, TUNEL and PARP cleavage; settings: combination of dipyridamole and atorvastatin, 48 hrs; MVA dependant
[11] = test system: KMS11 Multiple Myeloma (MM) cells; experiment: chemical screen for compounds potentiating the anti-proliferative/cytotoxic effect of atorvastatin (MTS); assay type: cell-based; settings: sublethal doses in combination with atorvastatin (IC20), 72 hours
Description: A hundred compounds from the chemical library (see text) were assayed at varying concentrations (5-50 μM).
One hundred compounds were evaluated for their ability to potentiate the anti-proliferative activity of atorvastatin on statin-sensitive KMS11 mM cells. Briefly, cells were exposed to sublethal doses of atorvastatin (IC20) alone and in combination with sublethal doses of the compounds.

[12] = test system: AML-3 cell line; experiment: apoptosis by fixed PI, TUNEL and PARP cleavage; settings: combination of dipyridamole and atorvastatin, 48 hrs; MVA dependant
[13] = test system: HMGCR mRNA in primary AML patient samples; experiment: HMGCR mRNA levels by real-time PCR (SYBR Green); assay type: cell-based; settings: combination of statins and dipyridamole, 24 hours post compound treatment
Description: as §2

[14] = test system: breast cancer cell lines (e.g. MCF-7); experiment: potentiation and synergy with statin in breast cancer cell lines; assay type: cell-based; settings: with fluvastatin, 72 hours
Description: as §3, §4, §5

[15] = p.o. three times a week for 37 days initiated 2 days post KMS11-luc injection, alone

`C=C[C@@]1(C)CC(=O)[C@]2(O)[C@@]3(C)[C@@H](O)CCC(C)(C)[C@@H]3[C@H](O)[C@H](OC(C)=O)[C@@]2(C)O1` [forskolin] was tested. Which “potentiation of the cytotoxic effects of statins / statin cancer cell death” value [1] did it give?
The value was “potentiated”.

What does the source list for `CCCC(=O)Nc1ncnc2c1ncn2[C@@H]1O[C@@H]2COP(=O)(O)O[C@H]2[C@H]1OC(=O)CCC` [db-cAMP, dibutyryl-cAMP]?
CREB phosphorylation [2]: increase; apoptotic effects in combination with atorvastatin ([1]; 0.25 mM in combination with atorvastatin, 48 hours post treatment): recapitulated the DP-atorvastatin apoptotic effects

Which results are given for `CC(C)c1c(C(=O)Nc2ccccc2)c(-c2ccccc2)c(-c2ccc(F)cc2)n1CC[C@@H](O)C[C@@H](O)CC(=O)O` [atorvastatin]?
effect on tumour growth, lower doses alone ([3]; lower doses, p.o. 3 times a week): no significant effect; survival [3, 15]: prolonged; tumor burden [3, 15]: significantly reduced

Which “level of potentiation compared with dipyridamole+fluvastatin” value [4] does the source give for `O=C1CCc2cc(OCCCCc3nnnn3C3CCCCC3)ccc2N1` [Cilostazol, cilostazol] here?
The value was “similar”.

What about the “potentiation of fluvastatin cell death” value [4] of the same compound?
Its value is “potentiated”.

And the “potentiation of the cytotoxic effects of statins” value [5]?
The value was “potentiated”.

What about the “potentiation of the cytotoxic effects of statins” value [6] of the same compound?
Its value is “potentiated”.

And the “potentiation of the cytotoxic effects of statins / statin cancer cell death” value [1]?
Its value is “potentiated”.

What does the source list for `OCCN(CCO)c1nc(N2CCCCC2)c2nc(N(CCO)CCO)nc(N3CCCCC3)c2n1` [dipyridamole]?
induction of apoptosis ([7]; in combination with atorvastatin): induced apoptosis; induction of apoptosis ([7]; in combination with fluvastatin): induced apoptosis; upregulation of HMGCR mRNA [8]: prevents the upregulation; potentiation of the anti-cancer effects of statins [9]: potentiated; induction of apoptosis [10]: induced apoptosis; potentiation of the anti-proliferative activity of atorvastatin [11]: remarkable potentiation; induction of apoptosis [12]: induced apoptosis; CREB phosphorylation [2]: increase; upregulation of HMGCR mRNA [13]: prevents the upregulation; potentiation of the anti-cancer effects of statins [14]: potentiated
